Reference: ChEMBL document CHEMBL4043256, “Discovery of N-substituted 7-azaindoles as PIM1 kinase inhibitors - Part I” (Bioorg Med Chem Lett, 2017)

Legend:
[1] = target: Serine/threonine-protein kinase pim-2 (Homo sapiens, UniProt Q9P1W9); test: Inhibition of PIM2 (unknown origin) assessed as reduction in full length human BAD phosphorylation at Ser112 residues by TR-FRET assay
[2] = target: Serine/threonine-protein kinase pim-3 (Homo sapiens, UniProt Q86V86); test: Inhibition of PIM3 (unknown origin) assessed as reduction in full length human BAD phosphorylation at Ser112 residues by TR-FRET assay
[3] = target: Cyclin-dependent kinase 9 (Homo sapiens, UniProt P50750)
[4] = target: Cell division cycle 7-related protein kinase (Homo sapiens, UniProt O00311); test: Inhibition of CDC7 (unknown origin)
Sequence of Cell division cycle 7-related protein kinase (O00311 whole entry): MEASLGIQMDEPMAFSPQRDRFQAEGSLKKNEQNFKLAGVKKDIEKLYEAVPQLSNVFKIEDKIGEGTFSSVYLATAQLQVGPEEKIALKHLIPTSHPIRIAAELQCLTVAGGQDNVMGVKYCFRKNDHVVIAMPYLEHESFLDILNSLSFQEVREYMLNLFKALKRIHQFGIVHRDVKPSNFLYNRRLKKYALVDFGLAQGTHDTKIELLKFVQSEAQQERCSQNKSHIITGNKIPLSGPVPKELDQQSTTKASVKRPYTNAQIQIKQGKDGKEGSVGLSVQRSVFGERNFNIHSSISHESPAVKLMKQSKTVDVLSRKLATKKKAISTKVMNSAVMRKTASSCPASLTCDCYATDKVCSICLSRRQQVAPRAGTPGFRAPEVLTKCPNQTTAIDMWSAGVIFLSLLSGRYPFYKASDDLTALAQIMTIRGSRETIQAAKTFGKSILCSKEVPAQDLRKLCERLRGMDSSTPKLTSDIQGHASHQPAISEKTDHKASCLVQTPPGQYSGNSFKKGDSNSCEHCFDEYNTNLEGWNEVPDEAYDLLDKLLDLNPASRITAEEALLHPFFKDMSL

Sequence of Serine/threonine-protein kinase pim-2 (Q9P1W9 whole entry): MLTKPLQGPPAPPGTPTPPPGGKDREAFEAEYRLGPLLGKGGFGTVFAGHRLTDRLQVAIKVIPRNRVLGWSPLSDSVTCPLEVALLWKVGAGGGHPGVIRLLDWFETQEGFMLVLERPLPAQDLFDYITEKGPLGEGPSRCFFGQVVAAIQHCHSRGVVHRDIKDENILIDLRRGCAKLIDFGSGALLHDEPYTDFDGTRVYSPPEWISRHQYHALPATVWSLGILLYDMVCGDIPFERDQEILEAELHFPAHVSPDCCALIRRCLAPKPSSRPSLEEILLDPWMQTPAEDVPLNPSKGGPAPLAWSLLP
Sequence of Cyclin-dependent kinase 9 (P50750 whole entry): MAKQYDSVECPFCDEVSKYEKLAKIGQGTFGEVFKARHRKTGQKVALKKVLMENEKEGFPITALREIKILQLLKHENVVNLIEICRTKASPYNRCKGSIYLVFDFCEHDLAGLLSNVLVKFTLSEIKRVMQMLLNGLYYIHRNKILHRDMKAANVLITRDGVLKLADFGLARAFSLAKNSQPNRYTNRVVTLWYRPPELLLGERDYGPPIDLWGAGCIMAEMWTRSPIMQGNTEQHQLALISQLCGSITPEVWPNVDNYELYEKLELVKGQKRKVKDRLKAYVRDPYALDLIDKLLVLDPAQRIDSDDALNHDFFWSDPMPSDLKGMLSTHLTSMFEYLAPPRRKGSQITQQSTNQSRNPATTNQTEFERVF

Compound	IC50 [1] [µM]	IC50 [2] [µM]	IC50 [3] [µM]	IC50 [4] [µM]
Cc1c(-c2ccc(N3CCNCC3)cc2)n(C)c2nc(C(N)=O)cc(Cl)c12	1.27	0.29	–	–
Clc1ccnc2[nH]c(-c3ccc(N4CCNCC4)cc3)cc12	–	–	0.02	0.04
CN(C)Cc1ccc(-c2c(-c3ccc(N4CCNCC4)cc3)n(C)c3nc(C(N)=O)cc(Cl)c23)cc1	> 30	–	–	–
CN1CCN(c2ccc(-c3cc4c(Cl)cc(C(N)=O)nc4n3C)cc2)CC1	> 30	0.4	–	–

Other lines, results leading:

IC50 [1] [µM]	IC50 [2] [µM]	IC50 [3] [µM]	IC50 [4] [µM]	Compound
0.872	0.492	–	–	CN1CCC(NC(=O)c2ccc(-c3c(-c4ccc(N5CCN(C)CC5)cc4)n(C)c4nccc(Cl)c34)cc2)CC1
13.8	10.6	–	–	Cn1c(-c2ccc(N3CCNCC3)cc2)c(-c2ccc(CO)cc2)c2c(Cl)ccnc21
3.3	1.4	–	–	CN(C)Cc1ccc(-c2c(-c3ccc(N4CCN(C)CC4)cc3)n(C)c3nccc(Cl)c23)cc1
